# Experimental data published in PubChem BioAssay (NCI).
#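 Values below derive from 48-hour exposures of cells grown in 96-well plates, with endpoints linearly interpolated between the two concentrations bracketing the appropriate inhibition level. Abbreviation: GI50, concentration required for 50% inhibition of growth. TGI is the concentration that stops growth completely.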
# What was measured:
# Assay in all cases: growth of human tumour cells (NCI), 48 h
# A498 renal = tested on: A498 renal
# A549 NSCLC = tested on: A549 NSCLC
# ACHN renal = tested on: ACHN renal
# BT-549 breast = tested on: BT-549 breast
# CAKI-1 renal = tested on: CAKI-1 renal
# COLO 205 colon = tested on: COLO 205 colon
# DU-145 prostate = tested on: DU-145 prostate
# EKVX NSCLC = tested on: EKVX NSCLC
# HCC-2998 colon = tested on: HCC-2998 colon
# HCT-116 colon = tested on: HCT-116 colon
# HCT-15 colon = tested on: HCT-15 colon
# HL-60(TB) leukemia = tested on: HL-60(TB) leukemia
# HOP-62 NSCLC = tested on: HOP-62 NSCLC
# HOP-92 NSCLC = tested on: HOP-92 NSCLC
# HS 578T breast = tested on: HS 578T breast
# HT29 colon = tested on: HT29 colon
# IGROV1 ovarian = tested on: IGROV1 ovarian
# K-562 leukemia = tested on: K-562 leukemia
# KM12 colon = tested on: KM12 colon
# LOX IMVI melanoma = tested on: LOX IMVI melanoma
# M14 melanoma = tested on: M14 melanoma
# MALME-3M melanoma = tested on: MALME-3M melanoma
# MCF7 breast = tested on: MCF7 breast
# MDA-MB-231 breast = tested on: MDA-MB-231 breast
# MDA-MB-435 = tested on: MDA-MB-435
# MOLT-4 leukemia = tested on: MOLT-4 leukemia
# NCI-H226 lung = tested on: NCI-H226 lung
# NCI-H23 lung = tested on: NCI-H23 lung
# NCI-H460 lung = tested on: NCI-H460 lung
# NCI-H522 lung = tested on: NCI-H522 lung
# NCI/ADR-RES ovarian = tested on: NCI/ADR-RES ovarian
# OVCAR-3 ovarian = tested on: OVCAR-3 ovarian
# OVCAR-4 ovarian = tested on: OVCAR-4 ovarian
# OVCAR-5 ovarian = tested on: OVCAR-5 ovarian
# OVCAR-8 ovarian = tested on: OVCAR-8 ovarian
# PC-3 prostate = tested on: PC-3 prostate
# RPMI-8226 leukemia = tested on: RPMI-8226 leukemia
# RXF 393 renal = tested on: RXF 393 renal
# SF-268 CNS = tested on: SF-268 CNS
# SF-295 CNS = tested on: SF-295 CNS
# SF-539 CNS = tested on: SF-539 CNS
# SK-MEL-2 melanoma = tested on: SK-MEL-2 melanoma
# SK-MEL-28 melanoma = tested on: SK-MEL-28 melanoma
# SK-MEL-5 melanoma = tested on: SK-MEL-5 melanoma
# SK-OV-3 ovarian = tested on: SK-OV-3 ovarian
# SN12C renal = tested on: SN12C renal
# SNB-75 CNS = tested on: SNB-75 CNS
# SR leukemia = tested on: SR leukemia
# SW-620 colon = tested on: SW-620 colon
# T-47D breast = tested on: T-47D breast
# TK-10 renal = tested on: TK-10 renal
# U251 CNS = tested on: U251 CNS
# UACC-257 melanoma = tested on: UACC-257 melanoma
# UACC-62 melanoma = tested on: UACC-62 melanoma
# UO-31 renal = tested on: UO-31 renal
compound,measurement,setting,value
COc1ccc(S(=O)(=O)Nc2cc(Sc3cccc4cccnc34)c(O)c3ccccc23)cc1,GI50,A498 renal,2270 nM
same,TGI,A498 renal,16500 nM
same,GI50,A549 NSCLC,587 nM
same,TGI,A549 NSCLC,12800 nM
same,GI50,ACHN renal,731 nM
same,TGI,ACHN renal,10000 nM
same,GI50,BT-549 breast,2650 nM
same,TGI,BT-549 breast,16900 nM
same,GI50,CAKI-1 renal,2530 nM
same,TGI,CAKI-1 renal,10500 nM
same,GI50,COLO 205 colon,1660 nM
same,TGI,COLO 205 colon,4120 nM
same,GI50,DU-145 prostate,738 nM
same,TGI,DU-145 prostate,2650 nM
same,GI50,EKVX NSCLC,1440 nM
same,TGI,EKVX NSCLC,10900 nM
same,GI50,HCC-2998 colon,6700 nM
same,TGI,HCC-2998 colon,21300 nM
same,GI50,HCT-116 colon,505 nM
same,TGI,HCT-116 colon,2350 nM
same,GI50,HCT-15 colon,477 nM
same,TGI,HCT-15 colon,8230 nM
same,GI50,HL-60(TB) leukemia,1180 nM
same,TGI,HL-60(TB) leukemia,4940 nM
same,GI50,HOP-62 NSCLC,1710 nM
same,TGI,HOP-62 NSCLC,21700 nM
same,GI50,HOP-92 NSCLC,1550 nM
same,TGI,HOP-92 NSCLC,5930 nM
same,GI50,HS 578T breast,3090 nM
same,TGI,HS 578T breast,28900 nM
same,GI50,HT29 colon,823 nM
same,TGI,HT29 colon,10400 nM
same,GI50,IGROV1 ovarian,1090 nM
same,TGI,IGROV1 ovarian,7200 nM
same,GI50,K-562 leukemia,926 nM
same,TGI,K-562 leukemia,11200 nM
same,GI50,KM12 colon,1640 nM
same,TGI,KM12 colon,15000 nM
same,GI50,LOX IMVI melanoma,372 nM
same,GI50,M14 melanoma,1300 nM
same,TGI,M14 melanoma,12100 nM
same,GI50,MALME-3M melanoma,2880 nM
same,TGI,MALME-3M melanoma,11500 nM
same,GI50,MCF7 breast,420 nM
same,TGI,MCF7 breast,2770 nM
same,GI50,MDA-MB-231 breast,992 nM
same,TGI,MDA-MB-231 breast,12500 nM
same,GI50,MDA-MB-435,2200 nM
same,TGI,MDA-MB-435,13200 nM
same,GI50,MOLT-4 leukemia,563 nM
same,TGI,MOLT-4 leukemia,8080 nM
same,GI50,NCI-H226 lung,2280 nM
same,TGI,NCI-H226 lung,19900 nM
same,GI50,NCI-H23 lung,1460 nM
same,TGI,NCI-H23 lung,10800 nM
same,GI50,NCI-H460 lung,466 nM
same,TGI,NCI-H460 lung,10500 nM
same,GI50,NCI-H522 lung,1360 nM
same,TGI,NCI-H522 lung,3740 nM
same,GI50,NCI/ADR-RES ovarian,707 nM
same,TGI,NCI/ADR-RES ovarian,12200 nM
same,GI50,OVCAR-3 ovarian,695 nM
same,TGI,OVCAR-3 ovarian,3810 nM
same,GI50,OVCAR-4 ovarian,609 nM
same,TGI,OVCAR-4 ovarian,1930 nM
same,GI50,OVCAR-5 ovarian,2830 nM
same,TGI,OVCAR-5 ovarian,12700 nM
same,GI50,OVCAR-8 ovarian,595 nM
same,TGI,OVCAR-8 ovarian,18800 nM
same,GI50,PC-3 prostate,512 nM
same,TGI,PC-3 prostate,10600 nM
same,GI50,RPMI-8226 leukemia,2470 nM
same,TGI,RPMI-8226 leukemia,8920 nM
same,GI50,RXF 393 renal,1240 nM
same,TGI,RXF 393 renal,6330 nM
same,GI50,SF-268 CNS,1550 nM
same,TGI,SF-268 CNS,9810 nM
same,GI50,SF-295 CNS,2230 nM
same,TGI,SF-295 CNS,13300 nM
same,GI50,SF-539 CNS,1490 nM
same,TGI,SF-539 CNS,6520 nM
same,GI50,SK-MEL-2 melanoma,1370 nM
same,TGI,SK-MEL-2 melanoma,6260 nM
same,GI50,SK-MEL-28 melanoma,2550 nM
same,TGI,SK-MEL-28 melanoma,13200 nM
same,GI50,SK-MEL-5 melanoma,1330 nM
same,TGI,SK-MEL-5 melanoma,2850 nM
same,GI50,SK-OV-3 ovarian,3590 nM
same,TGI,SK-OV-3 ovarian,14400 nM
same,GI50,SN12C renal,1060 nM
same,TGI,SN12C renal,4990 nM
same,GI50,SNB-75 CNS,3410 nM
same,TGI,SNB-75 CNS,13500 nM
same,GI50,SR leukemia,358 nM
same,TGI,SR leukemia,> 100000 nM
same,GI50,SW-620 colon,815 nM
same,TGI,SW-620 colon,3620 nM
same,GI50,T-47D breast,1730 nM
same,TGI,T-47D breast,5640 nM
same,GI50,TK-10 renal,2820 nM
same,TGI,TK-10 renal,13700 nM
same,GI50,U251 CNS,579 nM
same,TGI,U251 CNS,11900 nM
same,GI50,UACC-257 melanoma,1850 nM
same,TGI,UACC-257 melanoma,6040 nM
same,GI50,UACC-62 melanoma,2040 nM
same,TGI,UACC-62 melanoma,6830 nM
same,GI50,UO-31 renal,926 nM
same,TGI,UO-31 renal,8610 nM
